Laboratory results from the NIST ThermoML archive (doi:10.1016/j.jct.2006.05.004).

Columns and labels:
[1] = excess molar enthalpy (molar enthalpy of mixing); xn = mol fraction of the nth substance listed; settings: 298.15 K, 101 kPa, Liquid
[2] = xn = mol fraction of the nth substance listed; settings: 298.15 K, 101 kPa, Liquid

BrCCCCCBr [1,5-dibromopentane] + COC(C)=O
Settings | excess molar enthalpy [kcal/mol] | mass density [kg/m3]
[1], x2 = 0.1045 | 0.0536 | –
[1], x2 = 0.2048 | 0.0886 | –
[1], x2 = 0.2959 | 0.115 | –
[1], x2 = 0.3795 | 0.13 | –
[1], x2 = 0.454 | 0.137 | –
[1], x2 = 0.5171 | 0.137 | –
[1], x2 = 0.5731 | 0.133 | –
[1], x2 = 0.622 | 0.127 | –
[1], x2 = 0.685 | 0.116 | –
[1], x2 = 0.7322 | 0.103 | –
[1], x2 = 0.7812 | 0.0893 | –
[1], x2 = 0.8296 | 0.0734 | –
[1], x2 = 0.874 | 0.0585 | –
[1], x2 = 0.9245 | 0.0386 | –
[1], x2 = 0.9655 | 0.0173 | –
[2], x2 = 0.0956 | – | 1647.08
[2], x2 = 0.1844 | – | 1601.35
[2], x2 = 0.2647 | – | 1557.01
[2], x2 = 0.3394 | – | 1512.51
[2], x2 = 0.4752 | – | 1423.41
[2], x2 = 0.5958 | – | 1333.86
[2], x2 = 0.6582 | – | 1282.77
[2], x2 = 0.7059 | – | 1241.33
[2], x2 = 0.7548 | – | 1196.56
[2], x2 = 0.8019 | – | 1150.87
[2], x2 = 0.8486 | – | 1102.92
[2], x2 = 0.8874 | – | 1060.93
[2], x2 = 0.9243 | – | 1019.18
[2], x2 = 0.9638 | – | 972.17

BrCCBr [1,2-dibromoethane] + CCC(=O)OC
Settings | excess molar enthalpy [kcal/mol] | mass density [kg/m3]
[1], x1 = 0.0552 | 0.0107 | –
[1], x1 = 0.1177 | 0.0166 | –
[1], x1 = 0.18 | 0.0207 | –
[1], x1 = 0.2446 | 0.0215 | –
[1], x1 = 0.3072 | 0.0203 | –
[1], x1 = 0.3659 | 0.0179 | –
[1], x1 = 0.4203 | 0.0141 | –
[1], x1 = 0.4702 | 0.00939 | –
[1], x1 = 0.4789 | 0.00657 | –
[1], x1 = 0.5086 | 0.00466 | –
[1], x1 = 0.5255 | 0.00246 | –
[1], x1 = 0.5837 | -0.00251 | –
[1], x1 = 0.6456 | -0.00514 | –
[1], x1 = 0.7119 | -0.00614 | –
[1], x1 = 0.7852 | -0.00672 | –
[1], x1 = 0.8597 | -0.00547 | –
[1], x1 = 0.9321 | -0.00287 | –
[2], x2 = 0.0544 | – | 2090.48
[2], x2 = 0.1086 | – | 2015.14
[2], x2 = 0.1617 | – | 1942.18
[2], x2 = 0.213 | – | 1872.81
[2], x2 = 0.2714 | – | 1794.99
[2], x2 = 0.3254 | – | 1724.12
[2], x2 = 0.4447 | – | 1570.72
[2], x2 = 0.5056 | – | 1494.18
[2], x2 = 0.561 | – | 1425.55
[2], x2 = 0.6166 | – | 1357.57
[2], x2 = 0.6838 | – | 1276.41
[2], x2 = 0.743 | – | 1205.94
[2], x2 = 0.8086 | – | 1129
[2], x2 = 0.8715 | – | 1056.36
[2], x2 = 0.9358 | – | 982.68

BrCCCCBr [1,4-dibromobutane] + CCC(=O)OC
Settings | excess molar enthalpy [kcal/mol] | mass density [kg/m3]
[1], x2 = 0.074 | 0.0219 | –
[1], x2 = 0.1513 | 0.0366 | –
[1], x2 = 0.2294 | 0.0459 | –
[1], x2 = 0.305 | 0.0495 | –
[1], x2 = 0.3744 | 0.0494 | –
[1], x2 = 0.4375 | 0.0468 | –
[1], x2 = 0.4948 | 0.0428 | –
[1], x2 = 0.546 | 0.0378 | –
[1], x2 = 0.5911 | 0.0327 | –
[1], x2 = 0.6302 | 0.0274 | –
[1], x2 = 0.6539 | 0.0245 | –
[1], x2 = 0.665 | 0.0245 | –
[1], x2 = 0.6965 | 0.0181 | –
[1], x2 = 0.712 | 0.016 | –
[1], x2 = 0.7721 | 0.00839 | –
[1], x2 = 0.8331 | 0.00425 | –
[1], x2 = 0.8921 | 0.00227 | –
[1], x2 = 0.9477 | 0.000956 | –
[2], x2 = 0.0733 | – | 1763.63
[2], x2 = 0.1392 | – | 1712.4
[2], x2 = 0.2065 | – | 1658.81
[2], x2 = 0.2725 | – | 1604.96
[2], x2 = 0.3378 | – | 1550.31
[2], x2 = 0.3974 | – | 1499.32
[2], x2 = 0.4596 | – | 1444.8
[2], x2 = 0.5225 | – | 1388.41
[2], x2 = 0.638 | – | 1281.23
[2], x2 = 0.6944 | – | 1227.08
[2], x2 = 0.7466 | – | 1175.87
[2], x2 = 0.7998 | – | 1122.53
[2], x2 = 0.8489 | – | 1072.14
[2], x2 = 0.8998 | – | 1018.87
[2], x2 = 0.9505 | – | 964.61

BrCCCCCCBr [1,6-dibromohexane] + CCCCC(=O)OC
Settings | excess molar enthalpy [kcal/mol] | mass density [kg/m3]
[1], x2 = 0.0734 | 0.0108 | –
[1], x2 = 0.1653 | 0.0181 | –
[1], x2 = 0.264 | 0.0216 | –
[1], x2 = 0.3507 | 0.0227 | –
[1], x2 = 0.418 | 0.0213 | –
[1], x2 = 0.4743 | 0.0187 | –
[1], x2 = 0.5227 | 0.0154 | –
[1], x2 = 0.5866 | 0.0104 | –
[1], x2 = 0.6386 | 0.00703 | –
[1], x2 = 0.716 | 0.00251 | –
[1], x2 = 0.7966 | 4.78e-05 | –
[1], x2 = 0.879 | -0.000789 | –
[1], x2 = 0.9483 | -0.00012 | –
[2], x2 = 0.0703 | – | 1557.19
[2], x2 = 0.1394 | – | 1513.24
[2], x2 = 0.2633 | – | 1432.4
[2], x2 = 0.3222 | – | 1392.97
[2], x2 = 0.3842 | – | 1350.7
[2], x2 = 0.4472 | – | 1306.98
[2], x2 = 0.5076 | – | 1264.24
[2], x2 = 0.5698 | – | 1219.49
[2], x2 = 0.6817 | – | 1136.77
[2], x2 = 0.7372 | – | 1094.69
[2], x2 = 0.8445 | – | 1011.22
[2], x2 = 0.8993 | – | 967.47
[2], x2 = 0.945 | – | 930.4
